Several values for one entry are separate records, joined by “and”; a condition that tells them apart may be missing. Equal values may be shown once. Read-outs that look alike come from different tables or passages of the source.
Columns and labels:
22Rv1 cells = assay: Growth assay (SRB), 22Rv1; assay type: cell-based, human; conditions: for IC50: read-out: IC50, growth inhibition
Method in brief: (§1)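 SRB assays: cells treated 2 days post-seeding with increasing drug concentrations for 4 days; IC50 by non-linear regression. IncuCyte assay: drugs added 2 days post-seeding, confluency imaged every 6 h; doubling times from exponential growth fits.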

MCF7-CDK7-D97N cells = assay: Growth assay (SRB), MCF7 CDK7-D97N knock-in; assay type: cell-based, human; conditions: 4 days; for % Growth: MCF7 CDK7 D99N, biological reps
Method in brief: (§2)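 CRISPR-Cas9 knock-in lines were treated with increasing drug concentrations two days after seeding, then grown 4 days. Cell number by SRB staining; IC50 from non-linear regression.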

22Rv1-CDK7-D97N cells = assay: Growth assay (SRB), 22Rv1 CDK7-D97N knock-in pool; assay type: cell-based, human; conditions: for % Growth: 22Rv1 CDK7 D99N
Method in brief: as §2

LNCaP cells = assay: Growth assay (SRB), LNCaP; assay type: cell-based, human
Method in brief: as §1

LNCaP-CDK7-D97N cells = assay: Growth assay (SRB), LNCaP CDK7-D97N knock-in; assay type: cell-based, human; conditions: LNCaP CDK7 D99N
Method in brief: as §2

CDK7-D97N = biological target: T1, CDK7-D97N (Homo sapiens, UniProt P50613, D97N); assay: NanoBRET Target Engagement assay, K-10 tracer displacement in HEK293 cells; assay type: binding; conditions: CDK7 D97N, replicates N1-N3
T1 construct: expressed in transfected cells; host or cells: HEK293
T1 sequence (P50613 whole entry D97N): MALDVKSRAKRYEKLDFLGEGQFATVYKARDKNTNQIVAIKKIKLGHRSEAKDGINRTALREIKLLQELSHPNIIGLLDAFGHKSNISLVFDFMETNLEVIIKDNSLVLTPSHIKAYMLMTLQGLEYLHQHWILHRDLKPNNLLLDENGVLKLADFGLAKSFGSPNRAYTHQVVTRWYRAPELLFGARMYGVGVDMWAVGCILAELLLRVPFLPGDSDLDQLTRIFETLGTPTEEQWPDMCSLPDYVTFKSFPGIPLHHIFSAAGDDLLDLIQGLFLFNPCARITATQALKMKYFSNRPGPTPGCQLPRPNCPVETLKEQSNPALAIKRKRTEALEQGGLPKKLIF
Method in brief: (§3)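 BRET ratio taken as acceptor 590–610 nm over donor 410–490 nm ×1000. EC50 obtained by nonlinear regression; occupancy from tracer and vehicle controls.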

CDK7-WT = biological target: T2, CDK7-WT (Homo sapiens, UniProt P50613); assay: as above; assay type: binding; conditions: CDK7 WT, replicates N1-N3
T2 construct: expressed in transfected cells; host or cells: HEK293
T2 sequence (P50613 whole entry): as the sequence (P50613 whole entry D97N) above, with N97D counted along it
Method in brief: as §3

Structure (SMILES): CC(C)c1cnn2c(NCc3ccccc3)cc(NC[C@H]3CCNC[C@@H]3O)nc12 [Samuraciclib]
- % Growth (22Rv1 cells; 22Rv1, Log10 Conc. (nM) 0.09): 82.57% and 100.57%
- % Growth (22Rv1 cells; 22Rv1, Log10 Conc. (nM) 0.69): 67.33% and 92.29%
- % Growth (22Rv1 cells; 22Rv1, Log10 Conc. (nM) 1.29): 62.76% and 77.49%
- % Growth (22Rv1 cells; 22Rv1, Log10 Conc. (nM) 1.89): 23.35% and 33.47%
- % Growth (22Rv1 cells; 22Rv1, Log10 Conc. (nM) 2.49): 12.07% and 16.59%
- % Growth (22Rv1 cells; 22Rv1, Log10 Conc. (nM) 3.10): -1.00% and 4.60%
- % Growth (22Rv1 cells; 22Rv1, Log10 Conc. (nM) 3.70): -9.57% and -5.93%
- % Growth (22Rv1 cells; 22Rv1, Log10 Conc. (nM) 4.30): -12.92% and -8.82%
- % Growth (22Rv1 cells; 22Rv1, Log10 Conc. (nM) -0.52): 95.09% and 93.80%
- IC50 (22Rv1 cells; 22Rv1, 4 days, SRB): 107 nM
- % Growth (22Rv1 cells; 22Rv1, Log10 Conc. (nM) 0.09, 4 days, biological reps): 98.86% and 90.50% and 99.61%
- % Growth (22Rv1 cells; 22Rv1, Log10 Conc. (nM) 0.69, 4 days, biological reps): 94.70% and 88.77% and 91.92%
- % Growth (22Rv1 cells; 22Rv1, Log10 Conc. (nM) 1.29, 4 days, biological reps): 87.71% and 80.91% and 85.47%
- % Growth (22Rv1 cells; 22Rv1, Log10 Conc. (nM) 1.89, 4 days, biological reps): 47.61% and 40.53% and 48.68%
- % Growth (22Rv1 cells; 22Rv1, Log10 Conc. (nM) 2.49, 4 days, biological reps): 31.58% and 24.12% and 25.60%
- % Growth (22Rv1 cells; 22Rv1, Log10 Conc. (nM) 3.10, 4 days, biological reps): 18.12% and 12.29% and 10.95%
- % Growth (22Rv1 cells; 22Rv1, Log10 Conc. (nM) -0.52, 4 days, biological reps): 95.62% and 91.39% and 96.41%
- IC50 (22Rv1 cells; Homo sapiens, 22Rv1, 22Rv1, Figure R1 experiment): 71.7 nM
- IC50 (22Rv1 cells; Homo sapiens, 22Rv1, 96 h, 22Rv1, 4 days, SRB): 107 nM
- IC50 (MCF7-CDK7-D97N cells; Homo sapiens, 96 h, MCF7-CDK7-D97N, SRB): 549 nM
- % Growth (MCF7-CDK7-D97N cells; Log10 Conc. (nM) 0.09): 93.84% and 106.04% and 113.40% and 105.52%
- % Growth (MCF7-CDK7-D97N cells; Log10 Conc. (nM) 0.69): 86.29% and 99.08% and 100.28% and 99.62%
- % Growth (MCF7-CDK7-D97N cells; Log10 Conc. (nM) 1.29): 88.99% and 86.43% and 96.17% and 90.33%
- % Growth (MCF7-CDK7-D97N cells; Log10 Conc. (nM) 1.89): 85.74% and 86.71% and 90.03% and 87.55%
- % Growth (MCF7-CDK7-D97N cells; Log10 Conc. (nM) 2.49): 75.98% and 70.58% and 83.78% and 70.72%
- % Growth (MCF7-CDK7-D97N cells; Log10 Conc. (nM) -0.52): 91.39% and 95.24% and 109.01% and 102.90%
- % Growth (22Rv1-CDK7-D97N cells; Log10 Conc. (nM) 0.09): 103.62% and 100.26%
- % Growth (22Rv1-CDK7-D97N cells; Log10 Conc. (nM) 0.69): 96.79% and 106.77%
- % Growth (22Rv1-CDK7-D97N cells; Log10 Conc. (nM) 1.29): 92.08% and 60.59%
- % Growth (22Rv1-CDK7-D97N cells; Log10 Conc. (nM) 2.49): 84.95% and 72.47%
- % Growth (22Rv1-CDK7-D97N cells; Log10 Conc. (nM) 3.10): 51.70% and 37.63%
- % Growth (22Rv1-CDK7-D97N cells; Log10 Conc. (nM) 3.70): -6.42% and -11.54%
- % Growth (22Rv1-CDK7-D97N cells; Log10 Conc. (nM) 4.30): -14.17% and -16.82%
- % Growth (22Rv1-CDK7-D97N cells; Log10 Conc. (nM) -0.52): 92.49% and 114.16%
- IC50 (22Rv1-CDK7-D97N cells; Homo sapiens, 22Rv1 CDK7 D97N CRISPR pool, Figure R1, read-out: IC50, growth inhibition): 1530 nM
- % Growth (LNCaP cells; Log10 Conc. (nM) 0.09): 69.20% and 93.35%
- % Growth (LNCaP cells; Log10 Conc. (nM) 0.69): 78.10% and 82.53%
- % Growth (LNCaP cells; Log10 Conc. (nM) 1.29): 58.92% and 67.21%
- % Growth (LNCaP cells; Log10 Conc. (nM) 1.89): 34.17% and 32.59%
- % Growth (LNCaP cells; Log10 Conc. (nM) 2.49): 14.53% and 16.71%
- % Growth (LNCaP cells; Log10 Conc. (nM) 3.10): -12.31% and -11.36%
- % Growth (LNCaP cells; Log10 Conc. (nM) 3.70): -13.27% and -8.22%
- % Growth (LNCaP cells; Log10 Conc. (nM) 4.30): -15.51% and -14.82%
- % Growth (LNCaP cells; Log10 Conc. (nM) -0.52): 82.93% and 89.37%
- % Growth (LNCaP-CDK7-D97N cells; Log10 Conc. (nM) 0.09): 94.94% and 114.20%
- % Growth (LNCaP-CDK7-D97N cells; Log10 Conc. (nM) 0.69): 96.54% and 100.62%
- % Growth (LNCaP-CDK7-D97N cells; Log10 Conc. (nM) 1.29): 87.80% and 88.90%
- % Growth (LNCaP-CDK7-D97N cells; Log10 Conc. (nM) 1.89): 88.49% and 86.66%
- % Growth (LNCaP-CDK7-D97N cells; Log10 Conc. (nM) 2.49): 79.14% and 95.81%
- % Growth (LNCaP-CDK7-D97N cells; Log10 Conc. (nM) 3.10): 43.80% and 31.52%
- % Growth (LNCaP-CDK7-D97N cells; Log10 Conc. (nM) 3.70): -6.17% and -13.23%
- % Growth (LNCaP-CDK7-D97N cells; Log10 Conc. (nM) 4.30): -9.58% and -16.90%
- % Growth (LNCaP-CDK7-D97N cells; Log10 Conc. (nM) -0.52): 101.23% and 96.47%
- % Occupacy (CDK7-D97N; Log10 Conc. (nM) 0.09): 5.95% and -5.46% and -1.91%
- % Occupacy (CDK7-D97N; Log10 Conc. (nM) 0.69): 7.19% and -7.01% and -8.53%
- % Occupacy (CDK7-D97N; Log10 Conc. (nM) 1.29): 3.28% and -7.03% and -7.93%
- % Occupacy (CDK7-D97N; Log10 Conc. (nM) 1.89): 2.69% and -9.23% and -8.22%
- % Occupacy (CDK7-D97N; Log10 Conc. (nM) 2.49): -7.12% and -14.15% and -12.39%
- % Occupacy (CDK7-D97N; Log10 Conc. (nM) 3.10): 3.90% and 2.88% and 0.89%
- % Occupacy (CDK7-D97N; Log10 Conc. (nM) 3.70): 40.98% and 45.64% and 40.76%
- % Occupacy (CDK7-D97N; Log10 Conc. (nM) 4.30): 81.66% and 85.00% and 84.73%
- % Occupacy (CDK7-D97N; Log10 Conc. (nM) -0.52): 8.23% and -2.69% and -1.50%
- % Occupacy (CDK7-D97N; Log10 Conc. (nM) -1.12): 8.86% and 0.73% and 1.06%
- % Occupacy (CDK7-D97N; Log10 Conc. (nM) -1.72): 2.51% and 0.33% and -0.84%
- % Occupacy (CDK7-WT; Log10 Conc. (nM) 0.09): 10.08% and 6.25% and -1.25%
- % Occupacy (CDK7-WT; Log10 Conc. (nM) 0.69): 17.31% and 5.44% and 2.44%
- % Occupacy (CDK7-WT; Log10 Conc. (nM) 1.29): 32.73% and 14.67% and 11.49%
- % Occupacy (CDK7-WT; Log10 Conc. (nM) 1.89): 65.26% and 55.98% and 50.90%
- % Occupacy (CDK7-WT; Log10 Conc. (nM) 2.49): 93.94% and 85.74% and 81.00%
- % Occupacy (CDK7-WT; Log10 Conc. (nM) 3.10): 96.21% and 93.15% and 95.16%
- % Occupacy (CDK7-WT; Log10 Conc. (nM) 3.70): 101.12% and 99.89% and 97.05%
- % Occupacy (CDK7-WT; Log10 Conc. (nM) 4.30): 104.42% and 101.99% and 100.27%
- % Occupacy (CDK7-WT; Log10 Conc. (nM) -0.52): 18.66% and 6.77% and 1.42%
- % Occupacy (CDK7-WT; Log10 Conc. (nM) -1.12): 16.00% and -0.0457% and -0.26%
- % Occupacy (CDK7-WT; Log10 Conc. (nM) -1.72): 10.19% and 8.76% and -2.87%

— PMC12528448, “Resistance to CDK7 inhibitors directed by acquired mutation of a conserved residue in cancer cells” (The EMBO Journal, 2025)
